Experimental data published in patent US20230293599A1, “BACTERIAL COMPOSITIONS WITH ANTI-INFLAMMATORY ACTIVITY” (Universiteit Gent, priority 2020, published 2023).
Like-named read-outs stand apart in the source and are kept apart here.

Assays:
G. haemolysans = assay: Biolog Phenotype Microarray PM1-2 growth on carbon sources; type: cell-based, Gemella haemolysans; details: 35 hours, absorbance 590 nm, n = 1; cells without values AUC < 50
Protocol: (§1) Using Phenotype Microarray (PM) panels (Biolog), the influence of 190 carbon sources on the growth of the potential probiotic species R. mucilaginosa, R. dentocariosa, R. gilardii, G. haemolysans, and common respiratory pathogens P. aeruginosa, and S. aureus was determined. PM1 and PM2 panels (Biolog) were inoculated according to the manufacturer's instructions. Growth curves were generated for 35 hours by measuring the absorbance at 590 nm using an EnVision (Perkin Elmer) plate reader.

R. dentocariosa = assay: as above; type: cell-based, Rothia dentocariosa; details: 35 hours, absorbance 590 nm, n = 1; cells without values AUC < 50
Protocol: as §1

R. mucilaginosa = assay: as above; type: cell-based, Rothia mucilaginosa; details: 35 hours, absorbance 590 nm, n = 1; cells without values AUC < 50
Protocol: as §1

P. aeruginosa = assay: as above; type: cell-based, Pseudomonas aeruginosa; details: 35 hours, absorbance 590 nm, n = 1; cells without values AUC < 50
Method in brief: (§2)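 Growth on 190 carbon sources in Biolog PM1 and PM2 panels, inoculated per manufacturer's protocol. Growth curves followed for 35 hours by absorbance at 590 nm.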

R. gilardii = assay: as above; type: cell-based, Roseomonas gilardii; details: 35 hours, absorbance 590 nm, n = 1; cells without values AUC < 50
Protocol: as §1

S. aureus = type: cell-based, Staphylococcus aureus
Method in brief: as §2

NF-κB pathway = assay: NF-κB-luciferase reporter 3-D A549 cells stimulated with LPS (Example 2); type: cell-based, human; details: acetate at 28.3 mM and 18.0 mM, 4-hour incubation (FIG. 10)
Protocol: 3-D cells of the human adenocarcinoma alveolar lung epithelial cell line A549 transfected with an NF-κB-luciferase reporter (BPS Bioscience, San Diego, CA) were prepared as described previously for A549 cells (Crabbé et al., 2016; Barrila et al., 2010; Harris et al. 2007; Chen et a., 2019). Briefly, a monolayer of NF-κB-A549 cells was grown in T75 cell culture flasks containing GTSF-2 medium (HyClone, Logan, UT) supplemented with 1.5 g/L sodium bicarbonate (Sigma-Aldrich), 10% fetal bovine serum (FBS, Life technologies), 2.5 mg/L insulin transferring sodium selenite (Lonza) and 1% penicillin-streptomycin (pen-strep, Life Technologies) at 37° C. under 5% CO2. At confluence, the cells were seeded in the Rotating Wall Vessel (RWV) bioreactor with type-1 collagen coated dextran beads at a cell to bead ratio of 2:1 and were cultured for 11 to 14 days. […]
The NF-κB pathway was activated in 3-D NF-κB -A549 cells by 4 hours stimulation with LPS (100 μg/mL) in the presence or absence (positive control) of each of the isolates (Table 1) at varying multiplicity of infection (MOI) starting from an MOI of 100 to an MOI of 1.56 by performing 1:2 serial dilutions. […] After 4 hours incubation, 3-D epithelial cells containing the NF-κB -luciferase reporter were transferred to a black 96-well plate for analysis of luminescence. […] Luminescence was measured by an EnVision (Perkin Elmer) luminometer.

| Compound | AUC of growth curve, G. haemolysans (G. haemolysans) | AUC of growth curve, R. dentocariosa (R. dentocariosa) | AUC of growth curve, R. mucilaginosa (R. mucilaginosa) | AUC of growth curve, P. aeruginosa (P. aeruginosa) | AUC of growth curve, R. gilardii (R. gilardii) | AUC of growth curve, S. aureus (S. aureus) | effect on LPS-stimulated NF-κB pathway activation (NF-κB pathway) | AUC of growth curve, S. aureus (S. aureus; 35 hours, absorbance 590 nm, n = 1, cells without values AUC < 50) |
| --- | --- | --- | --- | --- | --- | --- | --- | --- |
| O=C[C@H](O)[C@H](O)[C@@H](O)CO [L-Lyxose] | 430.7 | 474.8 | 377.5 | 1393.5 | 765.9 | 308.4 | – | – |
| C[C@H](O)[C@H](O)[C@@H](O)[C@@H](O)C=O [L-Rhamnose] | 104.6 | 149.9 | 197.8 | 265.3 | 178.6 | 423.5 | – | – |
| CC(=O)C(=O)O [Pyruvic Acid] | 552.9 | 343.3 | 205.5 | 877.9 | 215.7 | 763.0 | – | – |
| CC(=O)O [acetate] | – | – | – | – | – | – | did not reduce | – |
| OC[C@H]1O[C@H](O)[C@H](O)[C@@H](O)[C@@H]1O [α-D-Glucose] | 1140.8 | 1288.0 | 1068.2 | 830.2 | 115.5 | 966.1 | – | – |
| Pectin | 68.6 | 683.6 | 199.5 | 334.5 | 141.7 | – | – | 996.1 |
